The subject of one experiment is PGHS-1. To be noted: in words, from literature; cited from earlier work.
A further experiment has as its system PGHS-2. The note with it: in words, from literature; cited from earlier work.
The target in another experiment is T1, human recombinant PGHS-2 (Homo sapiens, UniProt P35354).
T1 construct: made in house; host or cells: baculovirus/Sf9 insect cells (microsomes)
T1 sequence (P35354 18-604): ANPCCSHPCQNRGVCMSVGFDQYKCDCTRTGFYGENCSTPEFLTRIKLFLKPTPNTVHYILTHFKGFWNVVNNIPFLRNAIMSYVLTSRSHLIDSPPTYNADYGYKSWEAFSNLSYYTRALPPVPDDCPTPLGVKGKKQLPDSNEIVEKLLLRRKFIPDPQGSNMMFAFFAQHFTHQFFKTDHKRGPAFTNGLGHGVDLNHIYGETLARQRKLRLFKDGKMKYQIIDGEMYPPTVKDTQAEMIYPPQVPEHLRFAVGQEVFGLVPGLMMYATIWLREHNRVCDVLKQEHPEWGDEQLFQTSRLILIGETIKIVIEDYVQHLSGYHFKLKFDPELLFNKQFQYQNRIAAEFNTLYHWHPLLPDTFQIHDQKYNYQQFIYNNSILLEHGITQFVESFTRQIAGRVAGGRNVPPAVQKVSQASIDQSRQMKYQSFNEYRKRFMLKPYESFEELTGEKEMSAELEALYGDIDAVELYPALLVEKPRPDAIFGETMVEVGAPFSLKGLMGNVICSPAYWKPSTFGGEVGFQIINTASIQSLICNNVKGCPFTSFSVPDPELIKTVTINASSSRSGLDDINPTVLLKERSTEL
Briefly: Inhibition of prostaglandin biosynthesis (PGE2 by EIA), recombinant human PGHS-2 enzyme assay. The class given is biochemical. To be noted: 60 min preincubation, 10 μM arachidonic acid. On the procedure: (§1) Inhibition of prostaglandin biosynthesis was evaluated in recombinant human PGHS-1 and PGHS-2 enzyme assays. Representative compounds dissolved in DMSO (3.3% v/v) were preincubated with microsomes from recombinant human PGHS-1 or PGHS-2 expressed in the baculovirus/Sf9 cell system (Gierse, J. K., Hauser, S. D., Creely, D. P., Koboldt, C., Rangwala, S., H., Isakson, P. C., and Seibert, K. Expression and selective inhibition of the constituitive and inducible forms of cyclooxygenase Biochem J. 1995, 305: 479.), together with the cofactors phenol (2 mM) and hematin (1 μM) for 60 minutes prior to the addition of 10 μM arachidonic acid. The reaction was allowed to run for 2.5 minutes at room temperature prior to quenching with HCl and neutralization with NaOH. PGE2 production in the presence and absence of the drug was determined by EIA analysis. The EIA was conducted in 96 well microtiter plates (Nunc Roskilde, Denmark) and optical density measured using a microplate reader (Vmax, Molecular Devices Corp., Menlo Park, Calif.). EIA reagents for prostaglandin determination were purchased from Perseptive Diagnostics, Cambridge, Mass. PGE2 levels were measured against standards prepared in the same milieu. The immunoassays were conducted as recommended by the manufacturer.

The next experiment concerns the target T2, human recombinant PGHS-1 (Homo sapiens, UniProt P23219).
T2 construct: made in house; host or cells: baculovirus/Sf9 insect cells (microsomes)
The experiment in a line: Inhibition of prostaglandin biosynthesis (PGE2 by EIA), recombinant human PGHS-1 enzyme assay. The format is biochemical. The note with it: 60 min preincubation, 10 μM arachidonic acid. Here is the method:
as §1

Consider four compounds from patent publication US5840758A, “Oxime derivatives of fenamates as inhibitors of prostaglandin biosynthesis” (Abbott Laboratories, priority 1996, dated 1998).

T2 sequence (P23219 24-599): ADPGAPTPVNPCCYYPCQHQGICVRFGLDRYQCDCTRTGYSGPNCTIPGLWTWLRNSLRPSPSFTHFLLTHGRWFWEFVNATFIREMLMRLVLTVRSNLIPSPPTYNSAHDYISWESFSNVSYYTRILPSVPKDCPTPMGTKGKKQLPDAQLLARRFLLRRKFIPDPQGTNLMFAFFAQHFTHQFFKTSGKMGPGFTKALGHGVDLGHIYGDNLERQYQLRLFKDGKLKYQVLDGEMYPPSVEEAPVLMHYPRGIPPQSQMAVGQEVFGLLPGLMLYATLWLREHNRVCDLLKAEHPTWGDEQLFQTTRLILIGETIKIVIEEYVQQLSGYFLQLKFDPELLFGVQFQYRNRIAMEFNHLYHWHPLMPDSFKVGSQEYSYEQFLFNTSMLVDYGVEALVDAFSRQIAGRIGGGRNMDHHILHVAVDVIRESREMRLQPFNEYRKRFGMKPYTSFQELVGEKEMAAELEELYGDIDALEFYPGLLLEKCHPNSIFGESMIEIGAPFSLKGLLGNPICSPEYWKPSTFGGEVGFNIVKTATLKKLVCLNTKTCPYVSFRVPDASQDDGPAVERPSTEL

Regarding `CC(C)Cc1ccc(C(C)C(=O)O)cc1` (centres unmarked) [ibuprofen], in the experiment with PGHS-1, the “inhibition of PGHS-1” value is “inhibit both isozymes”. In the experiment with PGHS-2, the “inhibition of PGHS-2” value is on record as “inhibit both isozymes”.
On to `Cc1ccc(Cl)c(Nc2ccccc2C(=O)O)c1Cl` [Meclofenamic acid], for which the “inhibition of PGHS-1” value in the experiment on PGHS-1 was “inhibit both PGHS-1 and PGHS-2”. Also, the “inhibition of PGHS-2” value in the experiment with PGHS-2 is “inhibit both PGHS-1 and PGHS-2”.
Usually IC50 stands for the concentration that gives 50% inhibition. Take `Cc1ccc(Cl)c(Nc2ccccc2C=NOCC(=O)O)c1Cl` [Example 1, 2-[(2,6-dichloro-3-methylphenyl)amino]benzaldehyde-O-carboxymethyl oxime]: the IC50 turned out to be 0.022 µM at human recombinant PGHS-2 and 0.85 µM at human recombinant PGHS-1.
Turning to `COc1ccc2cc([C@H](C)C(=O)O)ccc2c1` [naproxen], the “inhibition of PGHS-1” value in the experiment with PGHS-1 is “inhibit both isozymes”. In addition, the “inhibition of PGHS-2” value with PGHS-2 was “inhibit both isozymes”.
